These results are taken from patent US20100036088A1, “Selective poly-N-substituted glycine antibiotics” (priority 2008, published 2010).

pIC50: −log10 of the molar value. Numbered stars: 1 amine (or outer) side, 2 acyl side, 3 side chain; on linkers, the order of the positions; unused ones are H or OH. Square brackets hold non-standard residues; d marks the D form. Peptide text beside a SMILES is read from it. Gly(N-CH2CH2-imidazol-4-yl) = O=C(O)CNCCc1c[nH]cn1; X3 = C[C@@H](c1ccc2ccccc2c1)N(CC(=O)[*:2])[*:1]; N(1S-Me-propyl)Gly = CC[C@H](C)NCC(=O)O; X1 = CC(C)[C@H](C)N(CC(=O)[*:2])[*:1]; Nspe = C[C@H](NCC(=O)O)c1ccccc1; Nlys = NCCCCNCC(=O)O

The subject of one data set is human erythrocytes. As to the kind of experiment: Hemolysis assay. The data set is classed as cell-based. Particulars: for HD10 (10% hemolytic dose) / HD50 (50% hemolytic dose): red cells of human, 1 h. As to the method:
Hemolysis assays. Erythrocytes were isolated from freshly drawn, heparanized human blood and resuspended to 20 vol % in PBS (pH 7.4). In a 96-well microtiter plate, 100 μL erythrocyte suspension was added to 100 μL peptoid solution in PBS (prepared by 1:2 serial dilutions), or 100 μL PBS in the case of negative controls. 100% hemolysis wells contained 100 μL blood cell suspension with 100 μL 0.2 vol % Triton X-100. The plate was incubated for 1 h at 37° C., then each well was diluted with 150 μL PBS. The plate was then centrifuged at 1200 g for 15 min, 100 μL of the supernatant from each well transferred to a fresh microtiter plate, and A350 measured.
Hemolysis assays. Erythrocytes were isolated from freshly drawn, heparanized human blood and resuspended in PBS (pH 7.4) to make a 20% volume suspension. Peptoid solutions were prepared by serial dilution (2:1) in a 96-well microtiter plate. For test wells, 100 μL of erythrocyte suspension was added to 100 μL of peptoid solution in PBS; PBS without peptoid was used as the negative control and 0.2 vol % Triton X-100 as the positive control that indicates 100% hemolysis. After 1 hour incubation at 37° C., each well was diluted with 150 μL PBS. Plates were then centrifuged at 1,200×g for 15 minutes to pellet the cells. 30 μL of the supernatant from each well were transferred to the corresponding well of a second 96-well plate that contains 70 μL PBS.

The nature of data set [1]: MTS assay, metabolic inhibition. The data set is classed as cell-based, mouse. As to the method:
(§1) The potencies of all compounds were determined against representative Gram-negative (E. coli ATCC 35218) and Gram-positive (B. subtilis ATCC 6633) biosafety level 1 (BSL1) organisms. In addition to hemolytic activity, the conventional measure of toxicity to mammalian cells, the effect of each ampetoid on NIH 3T3 mouse fibroblast cells was determined using the MTS tetrazolium salt-based calorimetric assay. While hemolysis measures the degree to which erythrocytes are lysed, the MTS assay indirectly quantifies the extent to which cellular metabolic activity is inhibited.
MTS assays. NIH/3T3 cells (ATCC Corporation) cultured at 37° C. and 5% CO2 in complete Dulbecco's modified eagle's media (CDMEM) supplemented with 1% sodium pyruvate, 1% penicillin-streptomycin, 1.5 g/L NaHCO3, and 10% fetal bovine serum. Cells were seeded at a density of 5,000 cells per well for NIH/3T3 cells in 96-well plates (100 μl total volume). A peptoid solution plate (100 μL total volume per well) was prepared by serial dilution of aqueous peptoid stock solution in Hank's balanced salt solution (HBSS) media. The day-old cell monolayers were washed with HBSS and media was replaced with 100 μL HBSS. The contents of the peptoid solution plate were transferred onto corresponding wells of the cell monolayer plate, and 40 μL MTS reagent (Promega, Inc.) was added to each well. After incubating for 3 hours at 37° C., absorbance at 490 nm was determined. […] The average of six replicates is reported.

A further data set relates to B. subtilis (ATCC 6633). Format: cell-based. The following applies: ATCC 6633. On the procedure: (§2) Whereas the preceding generation of molecules was designed to elucidate structure function relationships of specific molecular parameters (chirality, length, hydrophobicity, etc.), another generation compounds were designed explicitly to explore effects on selectivity. Antimicrobial activity of these compounds was tested against bacterial strains E. coli (ATTC 35218) and B. subtilis (ATTC 6633) in cation-adjusted MHB using the microdilution protocols previously described. The sequences, antimicrobial activities, hemolytic activities, and metabolic inhibitory concentrations against NIH 3T3 mouse fibroblast cells are summarized in Table 3 and the rationale of their design is described below.
as §1
(§3) Screening antibacterial assays. MICs were determined in 96-well microtiter plates in accordance with CLSI M7-A6 protocols. Peptoid solutions with 50 μL total volume were prepared using 2:1 serial dilutions. 50 μL of bacteria inoculum (1×10^6 CFU/mL) prepared in cation-adjusted Mueller-Hinton broth (CAMHB) was added to test wells. Control wells contained 100 μL MHB (no growth) or 50 μL inoculums with 50 μL MHB with no peptoid. […] Reported values were reproducible over three experiments, each containing two parallel trials.

In the next data set the test system is E. coli (ATCC 35218). The data set is classed as cell-based. Particulars: ATCC 35218. As to the method:
as §2, §1, §3

Regarding `C[C@@H](c1ccccc1)N(CC(N)=O)C(=O)CN(CCCCN)C(=O)CN(C(=O)CN(C(=O)CN(CCCCN)C(=O)CN(C(=O)CN(C(=O)CN(CCCCN)C(=O)CN(C(=O)CN(C(=O)CNCCCCN)[C@@H](C)c1ccccc1)[C@@H](C)c1ccccc1)[C@@H](C)c1ccccc1)[C@@H](C)c1ccccc1)[C@@H](C)c1ccccc1)[C@@H](C)c1ccccc1` [111mer, H-(Nlys-Nspe-Nspe)3-Nlys-Nspe-NH2] (H-[Nlys][Nspe][Nspe][Nlys][Nspe][Nspe][Nlys][Nspe][Nspe][Nlys][Nspe]-NH2), in the data set with human erythrocytes, the HD10 came to 103 µM and the HD50 was greater than 200 µM. In data set [1], this compound gave a pIC50 of 4.96.
As for `C[C@@H](c1ccccc1)N(CC(=O)N(CCc1c[nH]cn1)CC(=O)N(CCCCN)CC(=O)N(CC(=O)N(CCc1c[nH]cn1)CC(=O)N(CCCCN)CC(=O)N(CC(=O)N(CCc1c[nH]cn1)CC(=O)N(CCCCN)CC(=O)N(CC(=O)N(CCc1c[nH]cn1)CC(N)=O)[C@@H](C)c1ccccc1)[C@@H](C)c1ccccc1)[C@@H](C)c1ccccc1)C(=O)CNCCCCN` [1-Nhis3,6,9,12] (H-[Nlys][Nspe][Gly(N-CH2CH2-imidazol-4-yl)][Nlys][Nspe][Gly(N-CH2CH2-imidazol-4-yl)][Nlys][Nspe][Gly(N-CH2CH2-imidazol-4-yl)][Nlys][Nspe][Gly(N-CH2CH2-imidazol-4-yl)]-NH2), in the data set on human erythrocytes, the HD10 is recorded as >200/>200 μM and the HD50 is >200/>200 μM. Also, in the data set with B. subtilis (ATCC 6633), the “B. subtilis MIC” value amounted to 100 µM. For the same compound, the “E. coli MIC” value in the data set on E. coli (ATCC 35218) is greater than 100 µM.
As for `CC[C@H](C)N(CC(=O)N(CC(N)=O)[C@@H](C)c1ccc2ccccc2c1)C(=O)CN(CCCCN)C(=O)CN(C(=O)CN(C(=O)CN(CCCCN)C(=O)CN(C(=O)CN(C(=O)CN(CCCCN)C(=O)CN(C(=O)CN(C(=O)CNCCCCN)[C@@H](C)CC)[C@@H](C)c1ccccc1)[C@@H](C)CC)[C@@H](C)c1ccc2ccccc2c1)[C@@H](C)CC)[C@@H](C)c1ccccc1` [2-Nsna6,12] (H-[Nlys][N(1S-Me-propyl)Gly][Nspe][Nlys][N(1S-Me-propyl)Gly][X3][Nlys][N(1S-Me-propyl)Gly][Nspe][Nlys][N(1S-Me-propyl)Gly][X3]-NH2), in the data set on human erythrocytes, the “HD10 (10% hemolytic dose)” value is 55 µM and the “HD50 (50% hemolytic dose)” value is greater than 120 µM.
For `C[C@@H](c1ccccc1)N(CC(N)=O)C(=O)CN(C(=O)CN(CCC(=O)O)C(=O)CN(C(=O)CN(C(=O)CN(CCC(=O)O)C(=O)CN(C(=O)CN(C(=O)CN(CCC(=O)O)C(=O)CN(C(=O)CN(C(=O)CNCCC(=O)O)[C@@H](C)c1ccccc1)[C@@H](C)c1ccccc1)[C@@H](C)c1ccccc1)[C@@H](C)c1ccccc1)[C@@H](C)c1ccccc1)[C@@H](C)c1ccccc1)[C@@H](C)c1ccccc1` [1-Nglu1,4,7,10], in the data set with human erythrocytes, the “HD50 (50% hemolytic dose)” value is on record as >110/>110 μM.
In the data set with human erythrocytes, `CC(C)[C@H](C)N(CC(=O)N(CCCCN)CC(=O)N(CC(=O)N(CC(=O)N(CCCCN)CC(=O)N(CC(=O)N(CC(=O)N(CCCCN)CC(=O)N(CC(=O)N(CC(N)=O)[C@@H](C)c1ccccc1)[C@@H](C)c1ccccc1)[C@@H](C)C(C)C)[C@@H](C)C(C)C)[C@@H](C)c1ccccc1)[C@@H](C)c1ccccc1)C(=O)CN(C(=O)CNCCCCN)[C@@H](C)C(C)C` [1-Nsdp2,3,8,9, H-(Nlys-Nsdp-Nsdp-Nlys-Nspe-Nspe)2-NH2] (H-[Nlys][X1][X1][Nlys][Nspe][Nspe][Nlys][X1][X1][Nlys][Nspe][Nspe]-NH2) registered an HD10 of 77 µM and an HD50 greater than 200 µM. Also, the pIC50 in data set [1] is 4.72.
Take `C[C@@H](c1ccccc1)N(CC(N)=O)C(=O)CN(C(=O)CN(CCC(=O)O)C(=O)CN(C(=O)CN(C(=O)CN(CCCCN)C(=O)CN(C(=O)CN(C(=O)CN(CCC(=O)O)C(=O)CN(C(=O)CN(C(=O)CNCCCCN)[C@@H](C)c1ccccc1)[C@@H](C)c1ccccc1)[C@@H](C)c1ccccc1)[C@@H](C)c1ccccc1)[C@@H](C)c1ccccc1)[C@@H](C)c1ccccc1)[C@@H](C)c1ccccc1` [1-Nglu4,10]: in the data set on human erythrocytes, the “HD10 (10% hemolytic dose)” value is 19 µM and the “HD50 (50% hemolytic dose)” value was 40 µM.
On to `CC[C@H](C)N(CC(=O)N(CC(=O)N(CC(=O)N(CCCCN)CC(N)=O)[C@@H](C)c1ccccc1)[C@@H](C)CC)C(=O)CN(CCCCN)C(=O)CN(C(=O)CN(CCCCN)C(=O)CN(C(=O)CN(C(=O)CN(C(=O)CN(C(=O)CNCCCCN)[C@@H](C)CC)[C@@H](C)c1ccccc1)[C@@H](C)CC)[C@@H](C)c1ccccc1)[C@@H](C)c1ccccc1` [2scrambled, H-Nlys-Nssb-Nspe-Nssb-Nspe-Nlys-Nspe-Nlys-Nssb-Nssb-Nspe-Nlys-NH2] (H-[Nlys][N(1S-Me-propyl)Gly][Nspe][N(1S-Me-propyl)Gly][Nspe][Nlys][Nspe][Nlys][N(1S-Me-propyl)Gly][N(1S-Me-propyl)Gly][Nspe][Nlys]-NH2), for which, in the data set with human erythrocytes, the “no hemolysis up to” value was greater than 120 µM, the “HD10 (10% hemolytic dose)” value is reported as >120/>120 μM and the “HD50 (50% hemolytic dose)” value is >120/>120 μM.
As to `C[C@@H](c1ccccc1)N(CC(N)=O)C(=O)CN(C(=O)CN(C(=O)CN(C(=O)CN(C(=O)CN(C(=O)CN(C(=O)CN(C(=O)CN(CCCCN)C(=O)CN(CCCCN)C(=O)CN(CCCCN)C(=O)CNCCCCN)[C@@H](C)c1ccccc1)[C@@H](C)c1ccccc1)[C@@H](C)c1ccccc1)[C@@H](C)c1ccccc1)[C@@H](C)c1ccccc1)[C@@H](C)c1ccccc1)[C@@H](C)c1ccccc1` [1block, H-(Nlys)4-(Nspe)8-NH2], in the data set on human erythrocytes, the “HD10 (10% hemolytic dose)” value is 18 µM and the “HD50 (50% hemolytic dose)” value turned out to be 73 µM.
In the data set on human erythrocytes, `C[C@H](NCC(=O)N(CC(=O)N(CCCCN)CC(=O)N(CC(=O)N(CCCCN)CC(=O)N(CC(=O)N(CCCCN)CC(=O)N(CC(=O)N(CC(=O)N(CC(=O)N(CC(=O)N(CCCCN)CC(N)=O)[C@@H](C)c1ccccc1)[C@@H](C)c1ccccc1)[C@@H](C)c1ccccc1)[C@@H](C)c1ccccc1)[C@@H](C)c1ccccc1)[C@@H](C)c1ccccc1)[C@@H](C)c1ccccc1)c1ccccc1` [1scr, H-(Nspe)2-(Nlys-Nspe)3-(Nspe)3-Nlys-NH2] (H-[Nspe][Nspe][Nlys][Nspe][Nlys][Nspe][Nlys][Nspe][Nspe][Nspe][Nspe][Nlys]-NH2) gave an HD10 of 64 µM and an HD50 greater than 200 µM. Also, in data set [1], the negative logarithm of the IC50 (pIC50) was 5.07.
In the data set with human erythrocytes, `C[C@@H](c1ccccc1)N(CC(N)=O)C(=O)CN(Cc1ccccc1)C(=O)CN(CCCCN)C(=O)CN(Cc1ccccc1)C(=O)CN(Cc1ccccc1)C(=O)CN(CCCCN)C(=O)CN(Cc1ccccc1)C(=O)CN(Cc1ccccc1)C(=O)CN(CCCCN)C(=O)CN(Cc1ccccc1)C(=O)CN(Cc1ccccc1)C(=O)CNCCCCN` [1ach-Nspe12, H-(Nlys-Npm-Npm)3-(Nlys-Npm-Nspe)-NH2] had an HD10 of 164 µM and an HD50 greater than 200 µM. Further, in the data set on B. subtilis (ATCC 6633), the “B. subtilis MIC” value came out at 1.6 µM. Also, the pIC50 in data set [1] was 4.82.
Consider `CC[C@H](C)N(CC(=O)N(CC(N)=O)[C@@H](C)c1ccccc1)C(=O)CN(CCCCN)C(=O)CN(C(=O)CN(C(=O)CN(CCCCN)C(=O)CN(C(=O)CN(C(=O)CN(CCCCN)C(=O)CN(C(=O)CN(C(=O)CNCCCCN)[C@@H](C)CC)[C@@H](C)c1ccccc1)[C@@H](C)CC)[C@@H](C)c1ccccc1)[C@@H](C)CC)[C@@H](C)c1ccccc1` [compound 2, H-(Nlys-Nssb-Nspe)4-NH2] (H-[Nlys][N(1S-Me-propyl)Gly][Nspe][Nlys][N(1S-Me-propyl)Gly][Nspe][Nlys][N(1S-Me-propyl)Gly][Nspe][Nlys][N(1S-Me-propyl)Gly][Nspe]-NH2), for which, in the data set on human erythrocytes, the “HD10 (10% hemolytic dose)” value is listed as >120/>120 μM and the “HD50 (50% hemolytic dose)” value was >120/>120 μM.
